Bounds are passed on as bounds.

Holding throughout (assay type): in vivo
The test system of assay [1] is Cabbage Looper [Trichoplusia ni (Hubner)]. Kind of assay: Cabbage looper leaf dip (CL), 3-5 days. The note with it: percent in solution, second-instar larvae. In a few lines:
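Squash cotyledons dipped 2-3 s in compound in 50-50 acetone-water, dried, then infested with 5 second-instar larvae and held at high humidity. Mortality scored after 3-5 days at concentrations from 0.1% downward. LC50 from dosage-mortality curves, expressed as percent compound in solution.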

In assay [2] the test system is Aster Leafhopper [Macrosteles fascifrens (Stal)]. As to the kind of experiment: Aster leafhopper on dipped oat seedlings (LH), 48 hours. The note with it: percent in solution, adults/nymphs. In a few lines: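 LC50 values, given as percent of test compound in the dip solution, were derived from dosage-mortality curves over concentrations from 0.05% downward. Mortality was counted 48 hours after ten leafhopper adults/nymphs were enclosed on treated seedlings. The seedlings were oats, about 10 cm tall, briefly dipped in 50-50 acetone-water.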

The test system of assay [3] is Black Bean Aphid [Aphis fabae (Scop.)]. As to the kind of experiment: Black bean aphid spray test on nasturtium (BBA), 48 hours. The note with it: percent of test compound in sprayed solution. In a few lines:
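LC50, given as percent test compound in the sprayed liquid, was calculated from dosage-mortality curves using concentrations from 0.05% downward. Sprays in 50:50 acetone-water went to runoff on ~5 cm nasturtiums carrying 25-50 aphids of mixed ages, one day after infestation. Deaths were counted 48 h later under greenhouse conditions.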

Assay [4] relates to Housefly [Musca domestica]. As to the kind of experiment: Housefly contact mortality in dishes (HF), 48 hours. The note with it: μg of test compound per 25 female flies. In a few lines:
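LC50, as μg compound per 25 female flies, comes from dosage-mortality curves with doses from 100 μg downward. Residues were made by evaporating acetone plus 0.01% peanut oil in dishes, onto which 1-2-day-old females were caged; deaths were counted after 48 hours.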

The test system of assay [5] is Maize weevil [Sitophilus zeamais (Motschulsky)]. As to the kind of experiment: Maize weevil on dipped corn seeds (MW), 48 hours. The note with it: percent in solution, adult weevils. In a few lines:
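LC50, given as percent of compound in dipping solution, comes from dosage-mortality curves over concentrations descending from 0.01%. Four corn seeds soaked 2-3 s in 50:50 acetone:water solution were dried and held with 10 adult weevils, about 25° C, mortality read after 48 h.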

The test system of assay [6] is Tobacco Budworm [Heliothis virescens (Fabricius)] eggs. Kind of assay: Tobacco budworm eggs (TBW-E). The note with it: percent in solution; 2-day old eggs. In a few lines: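 Paper-towel patches of 2-day-old eggs dipped in acetone solutions of compound (0.1% downward), held on larval rearing medium at 78° F. Mortality scored once all control eggs had hatched and larvae were feeding; LC50 from dosage-mortality curves, expressed as percent compound in solution.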

In the case of `CCc1ccc(N=C(OCc2ccc(F)c(Oc3ccc(F)cc3)c2)C(C)C)cc1` [Compound 361], the “LC50 CL” value in assay [1] was found to be 0.001%. Also, the “LC50 LH” value in assay [2] is on record as under 0.05%. For the same molecule, the “LC50 BBA” value in assay [3] came to 0.0003%. For the same molecule, the “LC50 HF” value in assay [4] is under 100 µg. The “LC50 MW” value in assay [5] was over 0.01%. In addition, the “LC50 TBW E (eggs)” value in assay [6] was determined as 0.04%.
With `CSc1cccc(N=C(OCc2ccc(F)c(Oc3ccccc3)c2)C(C)C)c1` [Compound 362], the “LC50 CL” value in assay [1] is on record as over 0.1%. In addition, the “LC50 LH” value in assay [2] is reported as over 0.05%. In addition, in assay [3], the “LC50 BBA” value came to 0.005%. Moreover, the “LC50 HF” value in assay [4] was under 100 µg. For the same molecule, the “LC50 MW” value in assay [5] was over 0.01%. Besides, the “LC50 TBW E (eggs)” value in assay [6] is listed as over 0.1%.
Turning to `COc1ccc(N=C(OCc2ccc(F)c(Oc3ccc(F)cc3)c2)C(C)C)cc1OC` [Compound 363], the “LC50 CL” value in assay [1] is over 0.1%. The “LC50 LH” value in assay [2] is over 0.05%. The “LC50 BBA” value in assay [3] is given as 0.005%. Besides, in assay [4], the “LC50 HF” value was under 100 µg. The “LC50 MW” value in assay [5] is on record as over 0.01%. The “LC50 TBW E (eggs)” value in assay [6] is reported as over 0.1%.
Consider `CC(C)C(=Nc1ccc(Br)c(C(F)(F)F)c1)OCc1ccc(F)c(Oc2ccc(F)cc2)c1` [Compound 364], for which the “LC50 CL” value in assay [1] is 0.00045%. In addition, the “LC50 LH” value in assay [2] is reported as under 0.05%. Moreover, the “LC50 BBA” value in assay [3] stood at 0.001%. Besides, in assay [4], the “LC50 HF” value is under 100 µg. Moreover, in assay [5], the “LC50 MW” value was over 0.01%. Besides, in assay [6], the “LC50 TBW E (eggs)” value is 0.025%.
For `CC(C)C(=Nc1ccc(C(F)(F)F)cc1)OCc1cccc(Oc2ccc(Cl)cc2)c1` [Compound 365], the “LC50 CL” value in assay [1] is 0.00025%. The “LC50 LH” value in assay [2] is recorded as under 0.05%. In assay [3], the “LC50 BBA” value stood at 0.003%. Besides, the “LC50 HF” value in assay [4] was over 100 µg. Further, in assay [5], the “LC50 MW” value is over 0.01%. Also, in assay [6], the “LC50 TBW E (eggs)” value is on record as 0.038%.
In the case of `CC(C)C(=Nc1ccc2c(c1)OCO2)OCc1ccc(F)c(Oc2ccc(Cl)cc2)c1` [Compound 366], the “LC50 CL” value in assay [1] is listed as 0.0007%. Besides, the “LC50 LH” value in assay [2] is on record as 0.05%. Moreover, the “LC50 BBA” value in assay [3] is recorded as 0.0006%. In addition, the “LC50 HF” value in assay [4] is under 100 µg. The “LC50 MW” value in assay [5] was over 0.01%. Moreover, the “LC50 TBW E (eggs)” value in assay [6] was determined as 0.012%.
For the molecule `CC(C)C(=Nc1ccc2c(c1)OCO2)OCc1cccc(Oc2ccc(C(C)(C)C)cc2)c1` [Compound 367], the “LC50 CL” value in assay [1] was under 0.1%. The “LC50 LH” value in assay [2] is reported as over 0.05%. In addition, the “LC50 BBA” value in assay [3] is recorded as over 0.05%. Besides, the “LC50 HF” value in assay [4] was over 100 µg. Moreover, the “LC50 MW” value in assay [5] is given as over 0.01%. For the same molecule, in assay [6], the “LC50 TBW E (eggs)” value is reported as over 0.1%.
For the molecule `CC(C)C(=Nc1ccc(F)cc1)OCCc1cccc(Oc2ccccc2)c1` [Compound 456], the “LC50 CL” value in assay [1] amounted to 0.017%. In addition, the “LC50 LH” value in assay [2] was over 0.05%. Besides, the “LC50 BBA” value in assay [3] was 0.01%. In addition, in assay [4], the “LC50 HF” value is over 100 µg. In assay [5], the “LC50 MW” value was over 0.01%. Also, the “LC50 TBW E (eggs)” value in assay [6] is over 0.05%.
`CC(C)C(=Nc1ccc(F)c(Cl)c1)OCc1ccc(OCc2ccccc2)cc1` [Compound 475]: the “LC50 CL” value in assay [1] worked out at 0.008%. In addition, the “LC50 LH” value in assay [2] is over 0.05%. The “LC50 BBA” value in assay [3] is listed as over 0.05%. The “LC50 HF” value in assay [4] was over 100 µg. Moreover, the “LC50 MW” value in assay [5] is listed as over 0.01%. Moreover, the “LC50 TBW E (eggs)” value in assay [6] was over 0.1%.
Turning to `C=CCOc1cccc(COC(=Nc2ccc(F)c(Cl)c2)C(C)C)c1` [Compound 479], the “LC50 CL” value in assay [1] came out at 0.013%. Further, the “LC50 LH” value in assay [2] is recorded as over 0.05%. For the same molecule, in assay [3], the “LC50 BBA” value is over 0.05%. The “LC50 HF” value in assay [4] is 66 µg. The “LC50 MW” value in assay [5] is given as over 0.01%. Moreover, in assay [6], the “LC50 TBW E (eggs)” value is over 0.1%.
Consider `CC(C)C(=Nc1ccc(F)c(Cl)c1)OCc1cccc(OCc2ccc(F)cc2)c1` [Compound 490], for which the “LC50 CL” value in assay [1] is recorded as 0.0045%. Moreover, the “LC50 LH” value in assay [2] is on record as over 0.05%. Further, in assay [3], the “LC50 BBA” value is given as over 0.05%. In addition, the “LC50 HF” value in assay [4] is over 100 µg. In addition, the “LC50 MW” value in assay [5] is over 0.01%. For the same molecule, in assay [6], the “LC50 TBW E (eggs)” value is given as over 0.1%.
